What was measured:
HDAC6 = target: T1, HDAC6 (Homo sapiens, UniProt Q9UBN7); assay: In-cell ELISA of HDAC6 protein level in MM1S cells; type: cell-based; conditions: 1 nM to 3 μM, 6 h
T1 construct: an in-cell ELISA was used to analyze the HDAC6 content in MM1S cells; endogenous in cells; host or cells: MM1S (ATCC CRL-2974)
T1 sequence (Q9UBN7 1-1215): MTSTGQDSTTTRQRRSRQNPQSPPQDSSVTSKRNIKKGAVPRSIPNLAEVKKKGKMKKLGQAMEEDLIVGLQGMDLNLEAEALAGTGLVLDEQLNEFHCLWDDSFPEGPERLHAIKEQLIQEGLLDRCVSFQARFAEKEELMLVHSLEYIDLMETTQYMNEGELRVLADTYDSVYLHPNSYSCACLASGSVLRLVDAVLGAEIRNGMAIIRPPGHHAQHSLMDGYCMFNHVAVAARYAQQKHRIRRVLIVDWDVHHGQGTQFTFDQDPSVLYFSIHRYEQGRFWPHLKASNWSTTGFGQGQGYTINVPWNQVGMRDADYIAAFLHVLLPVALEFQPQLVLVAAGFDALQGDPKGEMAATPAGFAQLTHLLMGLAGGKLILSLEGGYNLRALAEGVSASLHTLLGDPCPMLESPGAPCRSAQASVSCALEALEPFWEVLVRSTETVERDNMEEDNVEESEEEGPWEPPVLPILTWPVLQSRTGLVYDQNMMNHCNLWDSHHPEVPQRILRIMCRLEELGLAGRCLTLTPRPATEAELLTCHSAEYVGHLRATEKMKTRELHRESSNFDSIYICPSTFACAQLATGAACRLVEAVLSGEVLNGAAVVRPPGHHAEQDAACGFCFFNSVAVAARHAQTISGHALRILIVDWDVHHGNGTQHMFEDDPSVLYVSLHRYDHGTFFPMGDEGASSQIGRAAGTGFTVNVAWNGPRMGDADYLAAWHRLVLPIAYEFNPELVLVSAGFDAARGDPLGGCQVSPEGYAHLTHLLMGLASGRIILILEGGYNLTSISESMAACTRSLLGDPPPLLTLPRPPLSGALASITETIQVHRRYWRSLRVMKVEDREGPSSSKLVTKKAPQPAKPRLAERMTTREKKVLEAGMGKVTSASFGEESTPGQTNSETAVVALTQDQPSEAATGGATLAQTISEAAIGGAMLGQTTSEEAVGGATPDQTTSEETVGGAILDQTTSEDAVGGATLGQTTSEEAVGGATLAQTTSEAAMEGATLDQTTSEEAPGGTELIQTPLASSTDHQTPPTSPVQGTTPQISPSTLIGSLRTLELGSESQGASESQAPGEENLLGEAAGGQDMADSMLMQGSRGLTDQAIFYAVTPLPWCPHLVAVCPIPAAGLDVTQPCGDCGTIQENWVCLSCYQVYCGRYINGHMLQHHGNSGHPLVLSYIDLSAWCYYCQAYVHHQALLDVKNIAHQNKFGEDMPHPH

HDAC1 = target: T2, HDAC1 (Homo sapiens, UniProt Q13547); assay: Western blot of HDAC1 in MM1S cells (time course); type: cell-based; conditions: 100 nM
T2 construct: endogenous in cells; host or cells: MM1S
Procedure: (§1) FIGS. 12A, 12B, and 12C are a series of western blots showing that degrader 12d selectively promotes HDAC6 degradation in MM1S cells.
To probe the efficiency of 12d, MM1S was treated with 100 nM 12d and the change of HDAC6 protein level was monitored by time. The HDAC6 degradation started around 1 h and reached maximal degradation effect at 4 h. The degradation of IKZFs was only observed after 4 h. Meanwhile, HDAC1 was not affected and the acetylation of tubulin was accumulated by time. To study the re-synthesis rate of HDAC6 after degradation, “wash-out” experiments were performed (data not shown). Cells were treated with 100 nM 12d for 6 h and then washed with PBS to remove remaining degraders. HDAC6 expression was monitored for 48 h. […] Selected degraders were also tested in other cell lines and they are effective among all tested cancer cell lines.
When the cells reached 90% confluence, they were harvested and plated 1×10^6 cells per well in 6-well plate. After overnight seeding, the cells were treated with a solution of compounds or vehicle in culture medium. […] Protein concentration was measured by using the Pierce BCA protein assay (Thermo Fisher Scientific). […] The Immunoblot was generated by ChemiDoc MP Imaging Systems (Bio-Rad) and analyzed by Image J software (only available for download online at https://imagej.net/Downloads). […]

acetylated tubulin = assay: Western blot of acetylated tubulin in MM1S cells; type: cell-based, human; conditions: 100 nM
Source text: as §1
(§2) To further examine the selectivity of the new generation of HDAC6 degraders, compound 12d was compared to SAHA, Next-A, degrader 1 and pan-inhibitor 2 for change of acetylated a-tubulin and acetylated histone H3.
(§3) When the cells reached 90% confluence, they were harvested and plated 1×10^6 cells per well in 6-well plate. After overnight seeding, the cells were treated with a solution of compounds or vehicle in culture medium. The culture medium was removed after treatment and then washed twice with cold PBS. To obtain whole cell lysate, all cells were treated with RIPA lysis buffer (25 mM Tris, pH 7-8, 150 mM NaCl, 0.1% SDS, 0.5% sodium deoxycholate, 1% Triton X-100, protease inhibitor cocktail (Roche, 1 tablet per 10 mL) and 1 mM PMSF) on ice for 10 minutes. Supernatant was collected after spinning down at 16,000 g at 4° C. for 15 minutes. Protein concentration was measured by using the Pierce BCA protein assay (Thermo Fisher Scientific). About 10-40 μg of total protein was mixed with 4× Laemmli Loading Dye (250 mM Tris, pH 6.8, 40% glycerol, 5% SDS, 0.005% bromophenol blue, 4% BME) and heated at 95-100° C. for 5 minutes. The heated sample was then subjected to 7.5-12% SDS-PAGE and transferred to PVDF membrane (Bio-Rad,). The membrane was blocked in 5% non-fat milk (Bio-rad) in TBS-T washing buffer (137 mM NaCl, 20 mM Tris, 0.1% Tween) and then incubated with primary antibodies at 4° C. overnight. […] The Immunoblot was generated by ChemiDoc MP Imaging Systems (Bio-Rad) and analyzed by Image J software (only available for download online at https://imagej.net/Downloads). […]
The activity of all eleven “n+4” VHL-based potential degraders to suppress HDAC6 expression was tested at 100 nM and compared to CRBN degrader 2 in MM1S cells. The resulting cells were analyzed for HDAC6 expression by in-cell ELISA (FIG. 15). […]

acetylated histone H3 = assay: Western blot of acetylated histone H3 in MM1S cells; type: cell-based, human
Source text: as §1, §2
as §3, with “Scientific).” for “Scientific). About 10-40 μg of total protein was mixed with 4× Laemmli Loading Dye (250 mM Tris, pH 6.8, 40% glycerol, 5% SDS, 0.005% bromophenol blue, 4% BME) and heated at 95-100° C. for 5 minutes. The heated sample was then subjected to 7.5-12% SDS-PAGE and transferred to PVDF membrane (Bio-Rad,). The membrane was blocked in 5% non-fat milk (Bio-rad) in TBS-T washing buffer (137 mM NaCl, 20 mM Tris, 0.1% Tween) and then incubated with primary antibodies at 4° C. overnight.”

T2 sequence (Q13547 whole entry): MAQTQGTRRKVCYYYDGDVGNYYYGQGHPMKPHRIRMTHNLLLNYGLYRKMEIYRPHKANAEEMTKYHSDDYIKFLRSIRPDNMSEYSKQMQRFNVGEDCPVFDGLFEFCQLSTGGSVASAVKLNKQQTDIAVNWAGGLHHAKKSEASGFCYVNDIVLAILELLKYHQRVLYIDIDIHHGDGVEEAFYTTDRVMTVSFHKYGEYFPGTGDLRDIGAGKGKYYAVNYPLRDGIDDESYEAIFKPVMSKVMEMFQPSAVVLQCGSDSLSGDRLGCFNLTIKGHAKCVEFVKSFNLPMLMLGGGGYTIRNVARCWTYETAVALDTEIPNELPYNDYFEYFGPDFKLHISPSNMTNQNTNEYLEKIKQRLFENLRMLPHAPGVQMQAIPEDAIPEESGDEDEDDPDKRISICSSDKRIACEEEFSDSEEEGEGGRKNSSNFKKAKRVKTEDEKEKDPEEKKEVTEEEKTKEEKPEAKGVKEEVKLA

Compound	DC50 (HDAC6; read-out: DC50 (Part 2))	Dmax (HDAC6; MM1.S, read-out: Dmax (Part 2))	effect on HDAC1 (HDAC1)	change of acetylated tubulin (acetylated tubulin)	change of acetylated histone H3 (acetylated histone H3)
CCCCN(Cc1ccc(C(=O)NO)cc1)C(=O)Nc1ccc(OCCCCCn2cc(CNc3cccc4c3C(=O)N(C3CCC(=O)NC3=O)C4=O)nn2)cc1 (stereo not drawn) [Compound 2]	2.2 nM	85.6%	–	–	–
CCCCN(Cc1ccc(C(=O)NO)cc1)C(=O)Nc1ccc(OCCCCCn2cc(CNc3cccc4c3C(=O)N(C3CCC(=O)NC3=O)C4=O)nn2)cc1 (stereo not drawn) [Compound 12d, 4-((1-butyl-3-(4-((5-(4-(((2-(2,6-dioxopiperidin-3-yl)-1,3-dioxoisoindolin-4-yl)amino)methyl)-1H-1,2,3-triazol-1-yl)pentyl)oxy)phenyl)ureido)methyl)-N-hydroxybenzamide]	–	–	not affected	increased	No increase
CCCCN(Cc1ccc(C(=O)NO)cc1)C(=O)Nc1ccccc1 [Next-A, 4-[[butyl[(phenylamino)carbonyl]amino]methyl]-N-hydroxy-benzamide, reference compound]	–	–	–	didn't	–
